Measurements taken from patent US20070015279A1, “Methods of Selecting Pancreatic Endocrine Cells Using Protein Synthesis Inhibitors” (AmCyte Inc., priority 2005, published 2007).

What was measured:
HD522B P0 cells = assay: G418 sulfate treatment of HD522B P0 cells, cell death and confluence; format: cell-based, human; conditions: for Cell confluence (estimated): one week recovery
Description: (§1) HD522B P0 cells were cultured in M3 for 4 days; G418 sulfate in M3 at the following concentrations (μg/ml) was added to the culture: 0, 5, 25, 50, 100, 200, 500, and 1000. The cells were cultured in the presence of G418 sulfate for 48 h, switched to recovery medium (M3/ITS/LIF) for one week and harvested for quantitative RT-PCR analysis. The control group had to be harvested two days post recovery due to confluence. […] At lower dosages, cell death occurred between 1 and 3 days after switch to recovery medium. Cell proliferation could be observed during the recovery period in most of the conditions except in cultures containing 500 and 1000 μg/ml G418 sulfate. Cell confluence from each plate was estimated as following: 0 (100%), 5 (100%), 25 (95%), 50 (85%), 100 (50%), 200 (20%), 500 (less than 5%), 1000 (less than 2%). Approximately equal amount of cells from each plate were used for analysis based on the estimated confluences of each plate except the plates received 500 and 1000 μg/ml G418 sulfate treatment. The β-actin mRNA copy numbers have no significant variation in control group and cells received 5, 25, 50, and 100 μg/ml G418 whereas cells that received 200 to 1000 μg/ml G418 have much lower β-actin expression especially the 500 and 1000 μg/ml samples. This correlated well with the decreased cell confluence in these samples. The expression of endocrine gene markers increased as the concentration of G418 concentration increased to 100 μg/ml and decreased when G418 concentration is above 200 μg/ml. The expression of amylase, an exocrine marker, and nestin, a marker of mesenchymal cell, decreased as G418 concentration increased.

[1] = system: cultured adult human pancreatic cells; assay: G418 sulfate treatment of HD522B P0 cells, marker mRNA by quantitative RT-PCR; format: cell-based
Description: as §1

With geneticin sulfate [G418 Sulfate] the “Cell confluence (estimated)” value (HD522B P0 cells; 5 μg/ml 48 h) was 100%, the “Cell confluence (estimated)” value (HD522B P0 cells; 25 μg/ml 48 h) was 95% and the “Cell confluence (estimated)” value (HD522B P0 cells; 50 μg/ml 48 h) was 85%. The “Cell confluence (estimated)” value (HD522B P0 cells; 100 μg/ml 48 h) was 50%, the “Cell confluence (estimated)” value (HD522B P0 cells; 200 μg/ml 48 h) was 20% and the “Cell confluence (estimated)” value (HD522B P0 cells; 500 μg/ml 48 h) was “less than 5%”. The “Cell confluence (estimated)” value (HD522B P0 cells; 1000 μg/ml 48 h) was “less than 2%”, the “time to observed cell death” value (HD522B P0 cells; 500 and 1000 μg/ml groups, from start of treatment) was at most 24 h and the Amylase/β-actin ([1]; 5 μg/ml 48 h) was 1.72E−03. The CK19/β-actin ([1]; 5 μg/ml 48 h) was 7.51E−01, the Delta/β-actin ([1]; 5 μg/ml 48 h) was 1.24E−04 and the GCK/β-actin ([1]; 5 μg/ml 48 h) was 2.20E−04. For the same substance, the GLUT2/β-actin ([1]; 5 μg/ml 48 h) was 4.36E−05, the Gcg/β-actin ([1]; 5 μg/ml 48 h) was 1.97E−02 and the Insulin/β-actin ([1]; 5 μg/ml 48 h) was 1.67E+00. For the same substance, the NCAM/β-actin ([1]; 5 μg/ml 48 h) was 1.51E−01, the Nestin/β-actin ([1]; 5 μg/ml 48 h) was 2.52E−03 and the NeuroD/β-actin ([1]; 5 μg/ml 48 h) was 1.26E−03. For the same substance, the Ngn3/β-actin ([1]; 5 μg/ml 48 h) was 2.45E−07, the Nkx2.2/β-actin ([1]; 5 μg/ml 48 h) was 7.84E−05 and the Nkx6.1/β-actin ([1]; 5 μg/ml 48 h) was 4.52E−04. For the same substance, the Notch1/β-actin ([1]; 5 μg/ml 48 h) was 8.14E−05, the P48/β-actin ([1]; 5 μg/ml 48 h) was 8.62E−03 and the PDX/β-actin ([1]; 5 μg/ml 48 h) was 7.02E−04. The Pax4/β-actin ([1]; 5 μg/ml 48 h) was 9.82E−06, the SST/β-actin ([1]; 5 μg/ml 48 h) was 5.88E−02 and the Amylase/β-actin ([1]; 25 μg/ml 48 h) was 6.09E−04. For the same substance, the CK19/β-actin ([1]; 25 μg/ml 48 h) was 1.06E+00, the Delta/β-actin ([1]; 25 μg/ml 48 h) was 1.08E−04 and the GCK/β-actin ([1]; 25 μg/ml 48 h) was 2.51E−04. It also gave a GLUT2/β-actin ([1]; 25 μg/ml 48 h) of 1.10E−04, a Gcg/β-actin ([1]; 25 μg/ml 48 h) of 4.56E−02 and an Insulin/β-actin ([1]; 25 μg/ml 48 h) of 3.40E+00. It also gave an NCAM/β-actin ([1]; 25 μg/ml 48 h) of 2.23E−01, a Nestin/β-actin ([1]; 25 μg/ml 48 h) of 1.24E−03 and a NeuroD/β-actin ([1]; 25 μg/ml 48 h) of 1.79E−03. The Ngn3/β-actin ([1]; 25 μg/ml 48 h) was 9.19E−07, the Nkx2.2/β-actin ([1]; 25 μg/ml 48 h) was 2.35E−04 and the Nkx6.1/β-actin ([1]; 25 μg/ml 48 h) was 6.45E−04. It also gave a Notch1/β-actin ([1]; 25 μg/ml 48 h) of 3.02E−04, a P48/β-actin ([1]; 25 μg/ml 48 h) of 1.12E−02 and a PDX/β-actin ([1]; 25 μg/ml 48 h) of 1.11E−03. The Pax4/β-actin ([1]; 25 μg/ml 48 h) was 1.24E−05, the SST/β-actin ([1]; 25 μg/ml 48 h) was 1.03E−01 and the Amylase/β-actin ([1]; 50 μg/ml 48 h) was 4.50E−04. The CK19/β-actin ([1]; 50 μg/ml 48 h) was 1.02E+00, the Delta/β-actin ([1]; 50 μg/ml 48 h) was 7.70E−05 and the GCK/β-actin ([1]; 50 μg/ml 48 h) was 3.01E−04. For the same substance, the GLUT2/β-actin ([1]; 50 μg/ml 48 h) was 2.17E−04, the Gcg/β-actin ([1]; 50 μg/ml 48 h) was 9.04E−02 and the Insulin/β-actin ([1]; 50 μg/ml 48 h) was 5.51E+00. The NCAM/β-actin ([1]; 50 μg/ml 48 h) was 1.51E−01, the Nestin/β-actin ([1]; 50 μg/ml 48 h) was 5.42E−04 and the NeuroD/β-actin ([1]; 50 μg/ml 48 h) was 3.10E−03. For the same substance, the Ngn3/β-actin ([1]; 50 μg/ml 48 h) was 2.13E−06, the Nkx2.2/β-actin ([1]; 50 μg/ml 48 h) was 4.03E−04 and the Nkx6.1/β-actin ([1]; 50 μg/ml 48 h) was 6.82E−04. It also gave a Notch1/β-actin ([1]; 50 μg/ml 48 h) of 4.91E−04, a P48/β-actin ([1]; 50 μg/ml 48 h) of 9.21E−03 and a PDX/β-actin ([1]; 50 μg/ml 48 h) of 1.28E−03. The Pax4/β-actin ([1]; 50 μg/ml 48 h) was 2.63E−05, the SST/β-actin ([1]; 50 μg/ml 48 h) was 1.84E−01 and the Amylase/β-actin ([1]; 100 μg/ml 48 h) was 5.09E−04. It also gave a CK19/β-actin ([1]; 100 μg/ml 48 h) of 9.98E−01, a Delta/β-actin ([1]; 100 μg/ml 48 h) of 1.16E−04 and a GCK/β-actin ([1]; 100 μg/ml 48 h) of 8.81E−04. The GLUT2/β-actin ([1]; 100 μg/ml 48 h) was 4.53E−04, the Gcg/β-actin ([1]; 100 μg/ml 48 h) was 1.85E−01 and the Insulin/β-actin ([1]; 100 μg/ml 48 h) was 1.06E+01. For the same substance, the NCAM/β-actin ([1]; 100 μg/ml 48 h) was 9.73E−02, the Nestin/β-actin ([1]; 100 μg/ml 48 h) was 3.48E−04 and the NeuroD/β-actin ([1]; 100 μg/ml 48 h) was 6.94E−03. The Ngn3/β-actin ([1]; 100 μg/ml 48 h) was 2.71E−06, the Nkx2.2/β-actin ([1]; 100 μg/ml 48 h) was 8.70E−04 and the Nkx6.1/β-actin ([1]; 100 μg/ml 48 h) was 9.19E−04. It also gave a Notch1/β-actin ([1]; 100 μg/ml 48 h) of 5.39E−04, a P48/β-actin ([1]; 100 μg/ml 48 h) of 7.93E−03 and a PDX/β-actin ([1]; 100 μg/ml 48 h) of 1.72E−03. The Pax4/β-actin ([1]; 100 μg/ml 48 h) was 5.31E−05, the SST/β-actin ([1]; 100 μg/ml 48 h) was 4.63E−01 and the Amylase/β-actin ([1]; 200 μg/ml 48 h) was 1.29E−03. It also gave a CK19/β-actin ([1]; 200 μg/ml 48 h) of 4.09E−01, a Delta/β-actin ([1]; 200 μg/ml 48 h) of 2.67E−04 and a GCK/β-actin ([1]; 200 μg/ml 48 h) of 2.74E−03. It also gave a GLUT2/β-actin ([1]; 200 μg/ml 48 h) of 1.33E−03, a Gcg/β-actin ([1]; 200 μg/ml 48 h) of 5.44E−01 and an Insulin/β-actin ([1]; 200 μg/ml 48 h) of 1.56E+01. It also gave an NCAM/β-actin ([1]; 200 μg/ml 48 h) of 6.17E−02, a Nestin/β-actin ([1]; 200 μg/ml 48 h) of 1.81E−03 and a NeuroD/β-actin ([1]; 200 μg/ml 48 h) of 1.76E−02. The Ngn3/β-actin ([1]; 200 μg/ml 48 h) was 2.37E−06, the Nkx2.2/β-actin ([1]; 200 μg/ml 48 h) was 3.31E−03 and the Nkx6.1/β-actin ([1]; 200 μg/ml 48 h) was 1.99E−03. The Notch1/β-actin ([1]; 200 μg/ml 48 h) was 1.60E−03, the P48/β-actin ([1]; 200 μg/ml 48 h) was 1.04E−02 and the PDX/β-actin ([1]; 200 μg/ml 48 h) was 6.90E−03. The Pax4/β-actin ([1]; 200 μg/ml 48 h) was 2.32E−04, the SST/β-actin ([1]; 200 μg/ml 48 h) was 1.37E+00 and the Amylase/β-actin ([1]; 500 μg/ml 48 h) was 7.63E−03. The CK19/β-actin ([1]; 500 μg/ml 48 h) was 1.03E−01, the Delta/β-actin ([1]; 500 μg/ml 48 h) was 1.27E−03 and the GCK/β-actin ([1]; 500 μg/ml 48 h) was 1.85E−02. It also gave a GLUT2/β-actin ([1]; 500 μg/ml 48 h) of 1.09E−02, a Gcg/β-actin ([1]; 500 μg/ml 48 h) of 3.80E+00 and an Insulin/β-actin ([1]; 500 μg/ml 48 h) of 8.21E+01. For the same substance, the NCAM/β-actin ([1]; 500 μg/ml 48 h) was 5.51E−02, the Nestin/β-actin ([1]; 500 μg/ml 48 h) was 3.37E−03 and the NeuroD/β-actin ([1]; 500 μg/ml 48 h) was 1.42E−01. It also gave a Ngn3/β-actin ([1]; 500 μg/ml 48 h) of 0.00E+00, a Nkx2.2/β-actin ([1]; 500 μg/ml 48 h) of 2.84E−02 and a Nkx6.1/β-actin ([1]; 500 μg/ml 48 h) of 1.28E−02. The Notch1/β-actin ([1]; 500 μg/ml 48 h) was 1.93E−03, the P48/β-actin ([1]; 500 μg/ml 48 h) was 2.43E−02 and the PDX/β-actin ([1]; 500 μg/ml 48 h) was 5.35E−02. For the same substance, the Pax4/β-actin ([1]; 500 μg/ml 48 h) was 1.50E−03, the SST/β-actin ([1]; 500 μg/ml 48 h) was 8.06E+00 and the Amylase/β-actin ([1]; 1000 μg/ml 48 h) was 1.24E−02. The CK19/β-actin ([1]; 1000 μg/ml 48 h) was 1.44E−02, the Delta/β-actin ([1]; 1000 μg/ml 48 h) was 4.18E−03 and the GCK/β-actin ([1]; 1000 μg/ml 48 h) was 2.39E−02. It also gave a GLUT2/β-actin ([1]; 1000 μg/ml 48 h) of 1.29E−02, a Gcg/β-actin ([1]; 1000 μg/ml 48 h) of 4.98E+00 and an Insulin/β-actin ([1]; 1000 μg/ml 48 h) of 2.02E+02. It also gave an NCAM/β-actin ([1]; 1000 μg/ml 48 h) of 3.31E−02, a Nestin/β-actin ([1]; 1000 μg/ml 48 h) of 0.00E+00 and a NeuroD/β-actin ([1]; 1000 μg/ml 48 h) of 1.72E−01. For the same substance, the Ngn3/β-actin ([1]; 1000 μg/ml 48 h) was 0.00E+00, the Nkx2.2/β-actin ([1]; 1000 μg/ml 48 h) was 6.69E−02 and the Nkx6.1/β-actin ([1]; 1000 μg/ml 48 h) was 1.37E−02. For the same substance, the Notch1/β-actin ([1]; 1000 μg/ml 48 h) was 3.99E−03, the P48/β-actin ([1]; 1000 μg/ml 48 h) was 5.95E−02 and the PDX/β-actin ([1]; 1000 μg/ml 48 h) was 4.87E−02. The Pax4/β-actin ([1]; 1000 μg/ml 48 h) was 7.64E−04 and the SST/β-actin ([1]; 1000 μg/ml 48 h) was 2.43E+01.
